# Values of other authors as cited in patent US20030056896A1, “Effective therapy for epilepsies” (priority 1995, published 2003).
# Where two headings read alike, the source gives them in different places.
solubility (in water),solubility (gastrointestinal pH range of 1 to 8),SMILES
practically insoluble in water,,NC(=O)N1c2ccccc2C=Cc2ccccc21 [carbamazepine]
,practically insoluble,O=C1NC(=O)C(c2ccccc2)(c2ccccc2)N1 [phenytoin]
